# Test results published in ChEMBL document CHEMBL6153138, “Discovery of Novel Aromatic Urea-Imidazole Salt Derivatives for Cancer Therapy via Targeting ERK1/2” (J Med Chem, 2025).
# Activity calls are given as the source filed them. The calls are words filed in the database; no cut-off is given here.
# Legend:
# [1] = target: T1, Mitogen-activated protein kinase; ERK1/ERK2 (Homo sapiens) (UniProt P27361+P28482); assay: Induction of thermal stabilization of ERK1/2 in human MCF7 cells at 10 uM incubated for 3 hrs at 65 to 75 degree C by […] method; format: cell-based
# T1 sequence (P27361 whole entry, looked up): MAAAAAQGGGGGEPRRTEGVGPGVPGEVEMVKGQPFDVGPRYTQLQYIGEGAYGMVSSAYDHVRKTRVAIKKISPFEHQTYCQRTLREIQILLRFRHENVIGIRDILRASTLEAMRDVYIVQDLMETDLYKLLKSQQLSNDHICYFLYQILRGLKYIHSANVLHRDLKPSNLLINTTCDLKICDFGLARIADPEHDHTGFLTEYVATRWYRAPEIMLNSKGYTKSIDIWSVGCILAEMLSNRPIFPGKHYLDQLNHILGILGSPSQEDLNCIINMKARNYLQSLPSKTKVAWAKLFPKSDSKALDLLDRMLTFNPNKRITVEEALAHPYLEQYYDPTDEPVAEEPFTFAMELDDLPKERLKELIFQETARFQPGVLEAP
# T1 sequence (P28482 whole entry, looked up): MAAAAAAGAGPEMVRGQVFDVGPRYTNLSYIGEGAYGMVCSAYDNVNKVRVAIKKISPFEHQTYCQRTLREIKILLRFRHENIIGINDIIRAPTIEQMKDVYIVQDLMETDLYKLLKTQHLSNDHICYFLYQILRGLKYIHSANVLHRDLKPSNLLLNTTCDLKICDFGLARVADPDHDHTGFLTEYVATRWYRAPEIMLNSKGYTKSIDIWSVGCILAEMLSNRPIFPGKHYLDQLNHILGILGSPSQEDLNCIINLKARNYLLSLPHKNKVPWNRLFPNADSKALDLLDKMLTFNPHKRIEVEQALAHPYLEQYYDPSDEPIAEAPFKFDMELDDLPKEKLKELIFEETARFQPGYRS
# MCF7 [2] = assay: Inhibition of cell migration in human MCF7 cells at 0.5 to 2 uM incubated for 48 hrs by wound healing assay; format: functional, cell-based; settings: dose 0.5-2 µM
# [3] = target: Vascular endothelial growth factor receptor 1 (Homo sapiens) (UniProt P17948); assay: Inhibition of human FLT1 at 10000 nM by DiscoverX KINOMEscan assay relative to control
# Sequence of Vascular endothelial growth factor receptor 1 (Homo sapiens) (P17948 whole entry): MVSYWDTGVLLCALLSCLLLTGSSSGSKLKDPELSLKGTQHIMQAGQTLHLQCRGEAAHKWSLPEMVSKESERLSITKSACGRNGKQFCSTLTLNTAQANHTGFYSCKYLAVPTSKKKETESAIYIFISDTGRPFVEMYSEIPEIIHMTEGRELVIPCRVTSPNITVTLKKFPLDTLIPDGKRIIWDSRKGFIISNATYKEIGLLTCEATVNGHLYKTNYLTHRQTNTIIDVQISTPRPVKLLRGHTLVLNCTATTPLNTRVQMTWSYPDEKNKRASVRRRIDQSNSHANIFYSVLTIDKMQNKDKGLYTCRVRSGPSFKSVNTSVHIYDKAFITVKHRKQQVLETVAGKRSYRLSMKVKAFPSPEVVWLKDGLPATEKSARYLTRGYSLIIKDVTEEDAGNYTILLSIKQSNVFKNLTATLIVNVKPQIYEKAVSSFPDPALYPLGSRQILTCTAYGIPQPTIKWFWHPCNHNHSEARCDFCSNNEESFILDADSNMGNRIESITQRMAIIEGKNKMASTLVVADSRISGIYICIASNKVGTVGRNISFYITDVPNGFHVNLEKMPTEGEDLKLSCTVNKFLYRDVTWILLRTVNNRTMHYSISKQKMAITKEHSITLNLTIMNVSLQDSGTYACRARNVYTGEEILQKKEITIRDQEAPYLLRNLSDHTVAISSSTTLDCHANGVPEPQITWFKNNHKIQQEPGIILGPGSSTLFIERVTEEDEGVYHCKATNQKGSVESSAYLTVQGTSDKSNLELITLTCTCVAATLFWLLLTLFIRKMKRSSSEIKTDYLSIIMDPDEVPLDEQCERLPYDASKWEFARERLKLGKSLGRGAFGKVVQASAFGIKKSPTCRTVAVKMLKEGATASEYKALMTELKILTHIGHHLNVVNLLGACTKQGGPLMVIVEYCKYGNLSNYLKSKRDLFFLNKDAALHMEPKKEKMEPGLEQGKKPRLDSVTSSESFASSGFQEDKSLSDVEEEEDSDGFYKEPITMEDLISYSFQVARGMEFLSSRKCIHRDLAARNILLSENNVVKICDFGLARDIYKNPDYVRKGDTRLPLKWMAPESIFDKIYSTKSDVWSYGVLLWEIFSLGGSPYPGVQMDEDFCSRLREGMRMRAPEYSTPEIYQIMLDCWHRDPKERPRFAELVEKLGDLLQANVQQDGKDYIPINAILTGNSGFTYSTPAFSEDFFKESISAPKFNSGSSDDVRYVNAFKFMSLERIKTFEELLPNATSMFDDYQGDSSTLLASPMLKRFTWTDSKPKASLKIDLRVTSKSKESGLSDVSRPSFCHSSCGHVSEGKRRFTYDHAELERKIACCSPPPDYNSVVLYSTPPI
# MCF7 [4] = assay: Activation of ERK1/2 pathway in human MCF7 cells assessed as increase in EGF-induced ERK phosphorylation at 2 uM incubated for 30 mins by Western blot analysis; format: cell-based; settings: filed as activator
# MCF7 [5] = assay: Downregulation of N-cadherin expression in human MCF7 cells at 0.5 to 2 uM; format: functional, cell-based; settings: dose 0.5-2 µM
# MCF7 [6] = assay: Antiproliferative activity against human MCF7 cells harbouring ERK1 knockout incubated for 48 hrs by CCK-8 method; format: functional, cell-based
# [7] = target: T1, Mitogen-activated protein kinase; ERK1/ERK2 (Homo sapiens); assay: Binding affinity to ERK1/2 in human MCF7 cells assessed as protection of pronase-mediated protein degradation at 1 to 100 uM pre-incubated with compound for 1 hr followed by pronase digestion for 15 mins by DARTS analysis; format: cell-based; settings: dose 1-100 µM, time 75.0 min
# MCF7 [8] = assay: Induction of apoptosis in human MCF7 cells assessed as early apoptotic cells at 1 uM incubated for 48 hrs in presence of 3-methyladenine by Annexin V/FITC and PI staining based flow cytometry analysis (reference value: 8.14%); format: functional
# [9] = Toxicity in female BALB/c mouse assessed as effect on spleen at 50 mg/kg, po qd measured after 18 days in presence of chloroquine by H and E staining based analysis; format: organism-based; settings: in vivo, 432 h, time 18 day
# 4T1 [10] = assay: Antitumor activity against mouse 4T1 cells implanted in female BALB/c mouse model assessed as reduction in PCNA expression at 50 mg/kg, po in presence of chloroquine by immunohistochemical analysis; format: functional, organism-based
# [11] = Toxicity in female BALB/c mouse assessed as effect ALP level in serum at 25 to 50 mg/kg, po qd measured after 18 days by biochemical analysis; format: organism-based; settings: in vivo, 432 h, dose 25-50 mg/kg, time 18 day
# MCF7 [12] = assay: Induction of apoptosis in human MCF7 cells assessed as early apoptotic cells at 1 uM incubated for 48 hrs in presence of chloroquine by Annexin V/FITC and PI staining based flow cytometry analysis (reference value: 8.72%); format: functional
# MCF7 [13] = assay: Induction of apoptosis in human MCF7 cells assessed as increase in Bax/Bcl-2 ratio at 0.5 to 2 uM by Western blot analysis; format: functional, cell-based; settings: dose 0.5-2 µM
# 4T1-Luc = assay: Anti-metastatic activity in mouse 4T1-Luc cells assessed as reduction in destroyed alveolar wall at 25 to 50 mg/kg, po measured after 20 days by H and E staining based analysis; format: functional, organism-based; settings: dose 25-50 mg/kg, time 20.0 day
# MCF7 [14] = assay: Inhibition of colony formation in human MCF7 cells at 1 uM incubated for 6 hrs in presence of 3-methyladenine by crystal violet staining based analysis; format: functional, cell-based
# MCF7 [15] = assay: Induction of apoptosis in human MCF7 cells assessed as late apoptotic cells at 0.5 uM incubated for 48 hrs by Annexin V/FITC and PI staining based flow cytometry analysis (reference value: 2.5%); format: functional
# MCF7 [16] = assay: Induction of autophagy in human MCF7 cells assessed as increase in LC3B-II level at 1 uM by Western blot analysis; format: functional, cell-based
# MCF7 [17] = assay: Effect on MEK1/2 expression in human MCF7 cells at 0.5 to 2 uM measured after 30 mins to 4 hrs by Western blot analysis; format: functional, cell-based; settings: dose 0.5-2 µM, time 30-240 min
# MCF7 [18] = assay: Upregulation of C-caspase3 protein expression in human MCF-7 cells at 1 uM incubated for 6 hrs in presence of chloroquine by Western blot analysis; format: functional, cell-based
# MCF7 [19] = assay: Induction of autophagy in human MCF7 cells assessed as increase in acidic vesicular organelles at 0.5 to 2 uM by Acridine orange staining based analysis; format: functional, cell-based; settings: dose 0.5-2 µM
# MCF7 [20] = assay: Downregulation of total c-Myc expression in human MCF7 cells at 0.5 to 2 uM measured after 30 mins to 4 hrs by Western blot analysis; format: functional, cell-based; settings: dose 0.5-2 µM, time 30-240 min
# MCF7 [21] = assay: Induction of apoptosis in human MCF7 cells assessed as late apoptotic cells at 2 uM incubated for 48 hrs by Annexin V/FITC and PI staining based flow cytometry analysis (reference value: 2.5%); format: functional
# [22] = Clearance in Sprague-Dawley rat at 1 mg/kg, iv by LC-MS/MS analysis; format: ADME, organism-based; settings: in vivo
# 4T1 [23] = assay: Antitumor activity against mouse 4T1 cells implanted in female BALB/c mouse model assessed as reduction in tumor volume at 50 mg/kg, po qd measured for 18 days in presence of chloroquine; format: functional, organism-based; settings: time 18.0 day
# 4T1 [24] = assay: Antitumor activity against mouse 4T1 cells implanted in female BALB/c mouse model assessed as reduction in tumor weight at 50 mg/kg, po qd measured for 18 days in presence of chloroquine; format: functional, organism-based; settings: time 18.0 day
# [25] = target: Mitogen-activated protein kinase 1 (Homo sapiens, UniProt P28482); assay: Inhibition of ERK2 (unknown origin) incubated for 60 mins by luminescence based ADP-Glo kinase assay
# Sequence of Mitogen-activated protein kinase 1 (P28482 whole entry): as the sequence (P28482 whole entry, looked up) above
# [26] = Toxicity in female BALB/c mouse assessed as effect TG level in serum at 25 to 50 mg/kg, po qd measured after 18 days by biochemical analysis; format: organism-based; settings: in vivo, 432 h, dose 25-50 mg/kg, time 18 day
# [27] = target: Mitogen-activated protein kinase 3 (Homo sapiens, UniProt P27361); assay: Induction of thermal stabilization of ERK1 (unknown origin) at 10 uM by differential scanning fluorimetry analysis
# Sequence of Mitogen-activated protein kinase 3 (P27361 whole entry): as the sequence (P27361 whole entry, looked up) above
# MCF7 [28] = assay: Induction of autophagy in human MCF7 cells harbouring ATG5 knockout assessed as increase in LC3B expression at 1 uM incubated for 48 hrs by Western blot analysis; format: functional, cell-based
# 4T1 [29] = assay: Antitumor activity against mouse 4T1 cells implanted in female BALB/c mouse model assessed as reduction in p-90RSK phosphorylation level at 50 mg/kg, po qd by immunohistochemical analysis; format: functional, organism-based
# [30] = Toxicity in female BALB/c mouse assessed as effect on heart at 50 mg/kg, po qd measured after 18 days in presence of chloroquine by H and E staining based analysis; format: organism-based; settings: in vivo, 432 h, time 18 day
# [31] = target: Non-receptor tyrosine-protein kinase TYK2 (Homo sapiens) (UniProt P29597); assay: Inhibition of human TYK2 at 10000 nM by DiscoverX KINOMEscan assay relative to control
# Sequence of Non-receptor tyrosine-protein kinase TYK2 (Homo sapiens) (P29597 whole entry): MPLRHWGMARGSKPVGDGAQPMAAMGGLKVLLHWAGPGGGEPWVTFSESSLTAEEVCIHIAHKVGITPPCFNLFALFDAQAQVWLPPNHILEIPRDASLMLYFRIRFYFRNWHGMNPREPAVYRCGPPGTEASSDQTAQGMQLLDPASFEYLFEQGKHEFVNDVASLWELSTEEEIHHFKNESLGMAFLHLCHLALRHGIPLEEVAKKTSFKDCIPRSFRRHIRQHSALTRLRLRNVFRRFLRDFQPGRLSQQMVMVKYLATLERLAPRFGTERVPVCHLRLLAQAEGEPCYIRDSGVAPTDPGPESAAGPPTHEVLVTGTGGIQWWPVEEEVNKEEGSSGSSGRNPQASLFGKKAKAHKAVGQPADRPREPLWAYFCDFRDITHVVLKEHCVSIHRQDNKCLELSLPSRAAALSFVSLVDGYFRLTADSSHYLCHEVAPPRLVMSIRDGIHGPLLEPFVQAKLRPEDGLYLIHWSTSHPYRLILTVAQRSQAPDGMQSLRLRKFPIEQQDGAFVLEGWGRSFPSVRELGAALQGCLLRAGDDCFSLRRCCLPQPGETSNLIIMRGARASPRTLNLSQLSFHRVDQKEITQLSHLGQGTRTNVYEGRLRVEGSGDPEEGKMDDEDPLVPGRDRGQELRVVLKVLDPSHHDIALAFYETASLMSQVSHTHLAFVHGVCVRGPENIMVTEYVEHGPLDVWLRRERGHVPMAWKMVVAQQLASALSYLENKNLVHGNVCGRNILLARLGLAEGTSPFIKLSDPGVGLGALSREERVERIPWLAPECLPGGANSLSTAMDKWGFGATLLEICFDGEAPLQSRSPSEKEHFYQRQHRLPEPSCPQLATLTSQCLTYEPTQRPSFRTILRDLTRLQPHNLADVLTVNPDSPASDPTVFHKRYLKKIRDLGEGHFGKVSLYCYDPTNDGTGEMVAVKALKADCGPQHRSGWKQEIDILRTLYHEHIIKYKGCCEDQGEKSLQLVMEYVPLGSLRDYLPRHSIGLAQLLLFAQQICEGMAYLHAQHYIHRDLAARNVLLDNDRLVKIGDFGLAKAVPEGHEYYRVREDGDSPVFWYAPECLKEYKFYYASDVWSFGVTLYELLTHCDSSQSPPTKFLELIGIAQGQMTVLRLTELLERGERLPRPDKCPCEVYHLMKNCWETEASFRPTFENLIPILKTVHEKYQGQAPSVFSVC
# MCF7 [32] = assay: Induction of apoptosis in human MCF7 cells assessed as late apoptotic cells at 1 uM incubated for 48 hrs by Annexin V/FITC and PI staining based flow cytometry analysis (reference value: 3.65%); format: functional
# MCF7 [33] = assay: Activation of ERK1/2 pathway in human MCF7 cells assessed as increase in EGF-induced c-Myc phosphorylation at 2 uM incubated for 30 mins by Western blot analysis; format: cell-based
structure (smiles),measurement,setting,value
O=C(Nc1cc(C(F)(F)F)cc(C(F)(F)F)c1)N[C@@H](Cc1ccccc1)Cn1c[n+](Cc2ccc3ccccc3c2)c2ccccc21.[Br-],Activity,[1],Active
same,inhibition,MCF7 [2],Active
same,inhibition,[3],19%
same,Activity,MCF7 [4],Active
same,Activity,MCF7 [5],Active
same,Activity,MCF7 [6],Not active; Compound Showed Less Sensitivity Response
same,Activity,[7],Active
same,Activity,MCF7 [8],3.81%
same,Activity,[9],Non-toxic
same,Activity,4T1 [10],Active
same,Activity,[11],Non-toxic
same,Activity,MCF7 [12],4.92%
same,Activity,MCF7 [13],Active
same,Activity,4T1-Luc,Active
same,inhibition,MCF7 [14],Active
same,Activity,MCF7 [15],7.8%
same,Activity,MCF7 [16],Active
same,Activity,MCF7 [17],inactive
same,Activity,MCF7 [18],Active
same,Activity,MCF7 [19],Active
same,Activity,MCF7 [20],Active
same,Activity,MCF7 [21],14.8%
same,clearance,[22],15.2 mL/min/kg
same,Activity,4T1 [23],Active
same,Activity,4T1 [24],Active
same,IC50,[25],97.9 nM
same,Activity,[26],Non-toxic
same,Activity,[27],Active
same,Activity,MCF7 [28],inactive
same,Activity,4T1 [29],Active
same,Activity,[30],Non-toxic
same,inhibition,[31],14%
same,Activity,MCF7 [32],13.7%
same,Activity,MCF7 [33],inactive
